These results are taken from patent US20250302933A1, “ATTENUATED YET IMMUNOGENICALLY POTENTIATED TUMOR EXTRACELLULAR VESICLE COMPOSITIONS AND USES THEREOF” (KOREA INSTITUTE OF SCIENCE AND TECHNOLOGY, priority 2024, published 2025).

One data set has as its system 4T1 cells. Nature of the data set: Cell viability assay (CCK-8) with verteporfin. The format is cell-based, mouse. The following applies: 24 hours. Here is the method: (§1) Cells were seeded in a 96-well plate (30096; SPL Life Sciences, Pochon, South Korea) (5,000 cells/well) and treated with various doses of verteporfin in a serum-free medium for 24 hours. Cell viability was measured using Cell counting kit-8 (CCK-8) assay (CK04; Dojindo, Kumamoto, Japan), and the absorbance was measured at 450 nm using a microplate reader (SpectraMAX 340; Molecular Devices, San Jose, CA, USA).
(§2) To determine appropriate conditions for AI-TEV production, three types of cancer cells were treated with various doses of verteporfin in a serum-free medium and cell viability was assessed. E.G7-OVA cells were a derivative of EL4 mouse lymphoma cells carrying a complete copy of chicken ovalbumin (OVA) mRNA. Mouse oral cancer 2 (MOC2) cells represented an aggressive form of mouse oral squamous cell carcinoma, while 4T1 cells were triple-negative, highly invasive malignant mouse breast cancer cells. The lowest dose of verteporfin that induced effective cell death was 20 ng/ml for E.G7-OVA cells and 200 ng/ml for MOC2 and 4T1 cells and cell viability was approximately 80% for all cell types (FIGS. 2 and 3). The immunogenicity of the cell death was verified based on an increase in DAMPs after verteporfin treatment. […] Tumor cells were cultured in a serum-free medium for 24 hours with or without verteporfin to prepare AI-TEV or control TEV (C-TEV), respectively. […] TEVs expressed several EV markers such as tumor susceptibility genes 101 (TSG101), CD81, and Alix, but had no negative marker calnexin (FIGS. 12 and 13). Since verteporfin inhibited both autophagy and YAP, it was expected that there was a significant difference in a proteomic cargo between C-TEV and AI-TEV.

In a further data set the test system is E.G7-OVA cells. Nature of the data set: Cell viability assay (CCK-8) with verteporfin. The format is cell-based, mouse. The following applies: 24 hours. Here is the method: as §1, §2
The next data set deals with MOC2 cells. Nature of the data set: Cell viability assay (CCK-8) with verteporfin. Conditions: 24 hours. The format is cell-based, mouse. Here is the method: as §1, §2
Another data set relates to cancer cells. Nature of the data set: Immunogenic cell death markers: calreticulin flow cytometry, HSP70/HMGB1 release Western blotting. The format is cell-based, mouse. The protocol: (§3) Protein concentrations of the samples were quantified using a DCTM protein assay kit (5000111, Bio-Rad, Hercules, CA, USA). The samples were dissolved using radioimmunoprecipitation buffer (9806S; Cell Signaling Technology, Danvers, MA, USA) and subjected to SDS-PAGE. The samples were loaded onto a sodium dodecyl sulfate polyacrylamide gel, separated by gel electrophoresis, and transferred to a nitrocellulose membrane. The membrane was blocked with 5% skim milk and incubated overnight at 4° C. with primary antibodies against the following: Tsg101 (sc-22774; Santa Cruz, Dallas, TX, USA), YAP (sc99010), CD81 (sc-166029), ALIX (sc-53540), calnexin (ab22595; Abcam, Cambridge, United Kingdom), OVA (0220-1682; Bio-Rad), HMGB1 (ab18256; Abcam), HSP70 (ab181606; Abcam), or B-actin (4967S; Cell Signaling Technology). After washing five times (5 min each) with Tris-buffered saline containing 0.05% Tween-20 (TBS/T), the membrane was incubated with anti-mouse peroxidase (1:3000; A4416; Sigma-Aldrich) or anti-rabbit peroxidase (1:3000; A0545) secondary antibody at 20 to 25° C. for 1 hour. The membrane was then incubated with an ECL substrate (1705061, Bio-Rad) and visualized using a ChemiDoc™ Touch Imaging System (Bio-Rad).
Cells were seeded in a 6-well plate (30006; SPL Life Sciences, 5×10^5 cells/well) and treated with verteporfin in a serum-free medium for 3 hours. The cells were fixed with 0.25% paraformaldehyde for 5 minutes at 4° C. and then blocked with 3% bovine serum albumin for 15 minutes at 4° C. A calreticulin antibody (ab2907; Abcam) was added to the samples and incubated at 4° C. for 45 minutes. […] Calreticulin expression on the cell membrane was evaluated using flow cytometry gating of PI-negative cells.
To determine appropriate conditions for AI-TEV production, three types of cancer cells were treated with various doses of verteporfin in a serum-free medium and cell viability was assessed. […]

Another data set concerns the target T1, YAP (Mus musculus, UniProt P46938).
T1 construct: endogenous in cells; host or cells: E.G7-OVA, MOC2 and 4T1 mouse cancer cells
Nature of the data set: Western blotting of YAP after verteporfin treatment. The format is cell-based. The following applies: verteporfin 24 hours. Here is the method: as §3
In addition, the migration ability of TEV-stimulated tumor cells was evaluated using a transwell migration assay. […] E.G7-OVA cells were also evaluated using the same protocol, but due to non-adherent characteristics, invasive cells were counted in the lower wells of a transwell chamber rather than on a membrane (FIGS. 18 and 19). […] Due to the aggressive and metastatic characteristics of 4T1 cells, a matrigel coating was added to the transwell membrane for the invasion assay. […] Finally, to confirm the attenuation of the tumor-promoting properties of AI-TEV in vivo, the efficacy as a therapeutic vaccine was evaluated in a mouse model. The therapeutic vaccine was another well-studied form of tumor vaccine designed to suppress tumor growth and induce long-term antitumor memory.
On the technique in general: In western blotting, separated proteins are transferred to a membrane and probed.

The mark [1] stands for this setting: conditioned medium, 24 hours after verteporfin treatment.

T1 sequence (P46938 whole entry): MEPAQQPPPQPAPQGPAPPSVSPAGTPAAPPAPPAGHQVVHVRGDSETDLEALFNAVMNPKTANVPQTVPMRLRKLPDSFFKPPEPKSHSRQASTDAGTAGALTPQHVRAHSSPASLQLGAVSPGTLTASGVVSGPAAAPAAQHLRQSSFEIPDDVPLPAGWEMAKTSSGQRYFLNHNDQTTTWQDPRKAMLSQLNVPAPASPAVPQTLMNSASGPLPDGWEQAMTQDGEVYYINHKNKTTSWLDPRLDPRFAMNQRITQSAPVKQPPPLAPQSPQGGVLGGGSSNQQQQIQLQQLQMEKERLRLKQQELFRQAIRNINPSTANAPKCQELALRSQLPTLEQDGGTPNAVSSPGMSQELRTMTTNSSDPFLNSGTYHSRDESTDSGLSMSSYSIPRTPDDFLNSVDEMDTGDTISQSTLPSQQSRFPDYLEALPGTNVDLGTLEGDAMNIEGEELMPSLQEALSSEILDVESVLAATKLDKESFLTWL

For the substance Verteporfin, the cell viability result with 4T1 cells (200 ng/ml verteporfin), in the data set on E.G7-OVA cells (20 ng/ml verteporfin) and in the data set with MOC2 cells (200 ng/ml verteporfin) was “approximately 80%” each time. In addition, the “lowest dose of verteporfin that induced effective cell death” value was determined as 200 ng/mL with 4T1 cells (serum-free medium), 20 ng/mL with E.G7-OVA cells (serum-free medium) and 200 ng/mL in the data set on MOC2 cells (serum-free medium). For the same substance, in the data set on cancer cells (cancer cells after verteporfin treatment, cell surface), the calreticulin expression result is reported as “dose-dependent increase”. Moreover, the “release of heat shock protein 70 (HSP70)” value in the data set with cancer cells (setting [1]) was “dose-dependent increase”. In the data set on cancer cells (setting [1]), the “release of high mobility group box 1 (HMGB1)” value was “dose-dependent increase”. Besides, on YAP (4T1 cells), the YAP protein entry was “YAP inhibition”. For the same substance, the YAP protein content result on YAP (E.G7-OVA cells) and at YAP (MOC2 cells) was “decreased” in each case.
